Common to all, as to format: in vivo, human
Data set [1] relates to plasma Aβ40. Nature of the data set: Phase 2 trial of ALZ-801 in early Alzheimer's disease: plasma Aβ40. The note with it: 52 weeks; 265 mg ALZ-801 orally twice daily; APOE4+ early AD subjects. As for the experimental part:
FIG. 1 illustrates the effect on plasma Abeta40 (change from baseline) following a 52 week treatment with 265 mg ALZ-801 administered orally twice daily to subjects who are APOE4+ and have early AD.
(§1) Evaluation of disease modifying effects from phase 2 trial of ALZ-801 (valiltramiprosate) in subjects with early Alzheimer's disease were conducted. The study enrolled 84 patients, with early AD, who carry the APOE4/4 or APOE3/4 genotype and have an MMSE score ranging from 22 to 30 (CDR-G 0.5 or 1). Each patient received 265 mg ALZ-801 twice daily. The average MMSE score of the subjects was 26 (mean age 69 years, 52% female). Subjects were either amyloid PET positive or A+/T+ on CSF assays. CSF criteria were: Ratio of Aβ42/40×10<0.61, and p-tau181>61 pg/ml. CSF was evaluated at 52 weeks, and plasma biomarkers at every visit.
(§2) These effects were associated with benefits on a composite cognitive outcome that tests memory and learning. […] The HV preservation effects correlate with cognitive benefits (Spearman's coefficient r=0.27, p=0.02).

For data set [2], the system named is plasma Aβ42. Nature of the data set: Phase 2 trial of ALZ-801 in early Alzheimer's disease: plasma Aβ42. As to conditions: 52 weeks; 265 mg ALZ-801 orally twice daily; APOE4+ early AD subjects. On the procedure:
FIG. 2 illustrates the effect on plasma Abeta42 (change from baseline) following a 52 week treatment with 265 mg ALZ-801 administered orally twice daily to subjects who are APOE4+ and have early AD.
as §1, §2

The test system of data set [3] is plasma p-tau181. Briefly: Phase 2 trial of ALZ-801 in early Alzheimer's disease: plasma p-tau181. As to conditions: 52 weeks; 265 mg ALZ-801 orally twice daily; APOE4+ early AD subjects. As for the experimental part:
FIG. 3 illustrates the effect on plasma p-tau181 (change from baseline) following a 52 week treatment with 265 mg ALZ-801 administered orally twice daily to subjects who are APOE4+ and have early AD.
as §1, §2

A short description of data set [4]: Phase 2 trial of ALZ-801: HV atrophy vs matched external control group from ADNI-1. As to conditions: compared to matched external control group from the ADNI-1 observational study; 265 mg twice daily. As for the experimental part:
as §1, §2

Data set [5] is described as follows: Phase 2 trial of ALZ-801: safety, ARIA and macrohemorrhages. As to conditions: 1 year of ALZ-801 treatment. As for the experimental part:
This is further supported by the early significant decrease in the neuronal injury marker plasma p-tau, which indicates decreased amyloid-induced neuronal stress. See e.g., FIG. 3.
as §1, with “visit. […]” for “visit.”

“Also recorded” adds a separate entry of the source.

Take `CC(C)[C@H](N)C(=O)NCCCS(=O)(=O)O` [ALZ-801, valyl-3-amino-1-propanesulfonic acid]: the “reduction of plasma Aβ40 compared to baseline” value in data set [1] was ~ 5%. Besides, the “reduction of plasma Aβ42 compared to baseline” value in data set [2] is ~ 5%. Besides, the “reduction of plasma p-tau compared to baseline” value in data set [3] is reported as 41%. Besides, the “reduction of HV atrophy” value in data set [4] is given as 19-23%. For the same molecule, in data set [5], the “events of vasogenic edema / amyloid-related imaging abnormalities (ARIA-E; b52: ARIA-E or ARIA-H)” value is reported as “no events” and the “macrohemorrhages (bleeds larger than 1 cm in diameter)” value is given as “no events; also recorded: no macro-hemorrhages”.

The record behind these values is US20260199270A1, “METHODS FOR TREATING NEURODEGENERATIVE DISORDERS WITH TRAMIPROSATE” (Alzheon, Inc., priority 2022, published 2026).
